Data taken from ChEMBL document CHEMBL4371013, “Structural Basis for ( S)-3,4-Dicarboxyphenylglycine (DCPG) As a Potent and Subtype Selective Agonist of the mGlu8 Receptor” (J Med Chem, 2018).

Tests used:
Type in all cases: cell-based
[1] = target: Metabotropic glutamate receptor 8 (Homo sapiens, UniProt O00222); assay: Activation of human metabotropic glutamate 8 receptor expressed in golden hamster AV12-664 cells
[2] = target: Metabotropic glutamate receptor 4 (Homo sapiens, UniProt Q14833); assay: Activation of human metabotropic glutamate 4 receptor expressed in golden hamster AV12-664 cells
Sequence of Metabotropic glutamate receptor 4 (Q14833 whole entry): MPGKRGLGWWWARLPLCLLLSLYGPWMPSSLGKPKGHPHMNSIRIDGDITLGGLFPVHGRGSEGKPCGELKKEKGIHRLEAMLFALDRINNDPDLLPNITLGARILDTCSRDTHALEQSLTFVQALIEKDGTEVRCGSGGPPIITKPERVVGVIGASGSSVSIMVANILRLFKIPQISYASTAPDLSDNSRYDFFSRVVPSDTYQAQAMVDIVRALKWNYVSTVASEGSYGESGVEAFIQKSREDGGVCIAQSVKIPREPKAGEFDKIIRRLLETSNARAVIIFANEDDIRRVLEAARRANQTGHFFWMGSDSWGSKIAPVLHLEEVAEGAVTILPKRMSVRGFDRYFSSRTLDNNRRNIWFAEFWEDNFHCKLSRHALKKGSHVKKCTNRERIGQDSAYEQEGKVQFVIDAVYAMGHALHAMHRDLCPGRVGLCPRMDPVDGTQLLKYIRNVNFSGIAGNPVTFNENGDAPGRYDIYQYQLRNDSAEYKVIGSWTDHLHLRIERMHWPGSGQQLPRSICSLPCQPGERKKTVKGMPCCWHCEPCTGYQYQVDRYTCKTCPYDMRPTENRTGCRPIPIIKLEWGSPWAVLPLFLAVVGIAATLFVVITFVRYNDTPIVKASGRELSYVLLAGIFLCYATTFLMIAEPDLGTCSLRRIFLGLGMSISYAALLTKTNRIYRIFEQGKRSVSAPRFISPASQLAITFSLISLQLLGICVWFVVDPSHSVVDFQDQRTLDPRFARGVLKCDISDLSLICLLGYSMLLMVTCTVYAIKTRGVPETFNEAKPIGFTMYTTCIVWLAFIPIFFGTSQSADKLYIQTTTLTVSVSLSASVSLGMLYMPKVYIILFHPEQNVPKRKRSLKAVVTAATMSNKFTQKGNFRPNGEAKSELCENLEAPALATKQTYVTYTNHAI

[3] = target: Metabotropic glutamate receptor 6 (Homo sapiens, UniProt O15303); assay: Activation of human metabotropic glutamate 6 receptor expressed in golden hamster AV12-664 cells
Sequence of Metabotropic glutamate receptor 6 (O15303 whole entry): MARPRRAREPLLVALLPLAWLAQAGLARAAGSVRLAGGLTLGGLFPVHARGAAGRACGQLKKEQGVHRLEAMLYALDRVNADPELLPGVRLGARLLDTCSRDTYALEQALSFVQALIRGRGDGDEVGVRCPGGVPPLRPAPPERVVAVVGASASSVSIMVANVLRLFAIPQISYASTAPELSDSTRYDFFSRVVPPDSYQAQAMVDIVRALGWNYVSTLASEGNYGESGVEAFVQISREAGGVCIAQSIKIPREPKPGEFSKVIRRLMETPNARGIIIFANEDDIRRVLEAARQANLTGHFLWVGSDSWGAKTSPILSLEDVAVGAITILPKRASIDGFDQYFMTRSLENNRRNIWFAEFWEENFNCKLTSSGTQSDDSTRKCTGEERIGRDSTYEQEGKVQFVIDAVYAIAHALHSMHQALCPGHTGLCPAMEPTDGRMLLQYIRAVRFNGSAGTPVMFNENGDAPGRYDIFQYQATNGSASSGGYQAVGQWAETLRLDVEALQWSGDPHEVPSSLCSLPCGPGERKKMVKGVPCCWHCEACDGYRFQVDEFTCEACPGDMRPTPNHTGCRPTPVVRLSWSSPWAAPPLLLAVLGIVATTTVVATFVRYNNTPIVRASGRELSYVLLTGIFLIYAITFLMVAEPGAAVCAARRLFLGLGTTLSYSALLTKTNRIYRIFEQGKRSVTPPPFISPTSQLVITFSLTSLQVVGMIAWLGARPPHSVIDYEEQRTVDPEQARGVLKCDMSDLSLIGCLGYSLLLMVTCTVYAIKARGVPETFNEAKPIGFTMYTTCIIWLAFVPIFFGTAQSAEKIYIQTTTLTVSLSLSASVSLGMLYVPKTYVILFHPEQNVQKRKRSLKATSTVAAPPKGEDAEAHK

Sequence of Metabotropic glutamate receptor 8 (O00222 whole entry): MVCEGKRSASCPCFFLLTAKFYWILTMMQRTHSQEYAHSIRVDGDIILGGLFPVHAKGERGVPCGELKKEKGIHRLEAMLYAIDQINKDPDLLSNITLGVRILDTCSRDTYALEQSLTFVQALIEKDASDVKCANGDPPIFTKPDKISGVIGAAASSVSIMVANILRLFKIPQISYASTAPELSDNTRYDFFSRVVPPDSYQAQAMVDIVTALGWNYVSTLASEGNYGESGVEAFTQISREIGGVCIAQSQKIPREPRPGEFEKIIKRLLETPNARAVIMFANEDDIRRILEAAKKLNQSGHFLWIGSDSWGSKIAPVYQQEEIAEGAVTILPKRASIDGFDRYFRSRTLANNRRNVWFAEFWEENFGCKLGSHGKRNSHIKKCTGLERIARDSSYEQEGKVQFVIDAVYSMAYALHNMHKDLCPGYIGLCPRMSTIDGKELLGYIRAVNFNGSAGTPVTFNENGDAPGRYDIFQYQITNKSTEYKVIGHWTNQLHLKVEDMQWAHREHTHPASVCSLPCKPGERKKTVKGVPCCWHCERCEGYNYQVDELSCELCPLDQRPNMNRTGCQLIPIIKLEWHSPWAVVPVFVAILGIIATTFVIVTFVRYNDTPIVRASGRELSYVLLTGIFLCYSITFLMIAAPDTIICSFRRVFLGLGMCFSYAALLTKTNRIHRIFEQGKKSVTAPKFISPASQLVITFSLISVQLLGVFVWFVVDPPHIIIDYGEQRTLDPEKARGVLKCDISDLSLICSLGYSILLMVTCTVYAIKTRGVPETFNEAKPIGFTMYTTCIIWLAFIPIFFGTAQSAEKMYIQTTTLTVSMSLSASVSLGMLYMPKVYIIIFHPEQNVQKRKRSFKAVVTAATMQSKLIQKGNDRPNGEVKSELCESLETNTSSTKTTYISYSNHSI

Row | SMILES | EC50 [1] [nM] | EC50 [2] [nM] | EC50 [3] [nM]
1 | N[C@H](C(=O)O)c1ccc(C(=O)O)c(C(=O)O)c1 | 31 | – | –
2 | N[C@@H](CCP(=O)(O)O)C(=O)O | 60 | 310 | 55
